Laboratory results: US20140135359A1, “METHODS OF DESIGNING, PREPARING, AND USING NOVEL PROTONOPHORES” (priority 2012, published 2014)
Where two headings read alike, the source gives them in different places.

What was measured:
[1] = test system: glucose-6-phosphatase (G6Pase) activity in H4IIE hepatocytes; experiment: Glucose-6-phosphatase activity in H4IIE hepatocytes; format: cell-based, murine; conditions: 1 μM, 16 h
Protocol: 2.4 Glucose-6-phosphatase activity in H4IIE hepatocytes: H4IIE murine hepatocytes (American Type Culture Collection) were cultured to confluence in 12-well plates in DMEM supplemented with 10% FBS and antibiotics. […] Effects of test compounds on cellular viability were assessed by measuring the release of lactate dehydrogenase (LDH) into the culture medium at the end of a 16 h treatment using a commercial kit (Cytotoxicity Detection Kit; Roche Diagnostics; Laval, QC) as per the manufacturer's instructions; LDH release was expressed as % of total (medium+lysate) LDH content for each well. Cells were also routinely inspected for abnormal morphology by phase-contrast microscopy at the conclusion of the treatment period. Following treatment, cells were washed in HEPES-buffered saline (10 mM HEPES, pH 7.4, 150 mM NaCl) at 37° C. Glucose-6-phosphatase (G6Pase) activity was assessed by measuring the rate of glucose formation in the presence of a non-limiting amount of glucose-6-phosphate (G6P), as done by others [39B, 40B]. Glucose production was measured with a commercial glucose assay kit (AutoKit Glucose; Wako Diagnostics; Richmond, Va.). Two hundred μl of AutoKit Glucose buffer solution diluted 1:4 in water were added to each well. Cells were then lysed by the addition of 50 μl of 0.05% Triton X-100 in similarly diluted AutoKit Glucose buffer solution. […] At 37° C., after which time 500 μl of AutoKit Glucose color reagent were added and incubation was continued for exactly 5 min. Samples were then rapidly transferred to microcentrifuge tubes. Fifty μl were removed for assay of total protein content in order to account for effects of test compounds on cellular viability or proliferation [41B]. A commercial protein assay kit based on the Bradford method was used (Protein Assay; Bio-Rad Laboratories; Hercules, Calif.). […] The remaining volume was centrifuged at 3000×g for 5 min. Absorbance of the supernatant was measured at 505 nm at ambient temperature and glucose concentration was calculated from a standard curve performed in parallel. Control wells without exogenous G6P were included on each plate for each treatment condition and activity measured from these wells was subtracted from activity measured in the presence of exogenous G6P. G6Pase activity calculated in this way was then expressed normalized to protein content on a well-by-well basis. Two independent experiments in cells of different passages were performed for each of the selected test compounds, with four to six replicates per condition per experiment.
Protocol for assay of glucose-6-phosphatase activity in H4IIE or other hepatocytes: H4IIE murine hepatocytes (American Type Culture Collection) may be cultured to confluence in 12-well plates in Dulbecco's modified Eagle's medium (DMEM) supplemented with 10% fetal bovine serum (FBS), and antibiotics. […] Effects of test compounds on cellular viability may be assessed by measuring the release of lactate dehydrogenase (LDH) into the culture medium at the end of a 16 hour treatment using a commercial kit (e.g., Cytotoxicity Detection Kit; Roche Diagnostics; Laval, QC) as per the manufacturer's instructions; LDH release may be expressed as % of total (i.e., medium+lysate) LDH content for each well. Cells may also be routinely inspected for abnormal morphology by phase-contrast microscopy at the conclusion of the treatment period. Following treatment, cells may be washed in HEPES-buffered saline (10 mM HEPES, pH 7.4, 150 mM NaCl) at 37° C. Glucose-6-phosphatase (G6Pase) activity may be assessed by measuring the rate of glucose formation in the presence of a non-limiting amount of glucose-6-phosphate (G6P). Glucose production may be measured with a commercial glucose assay kit (e.g., AutoKit Glucose; Wako Diagnostics; Richmond, Va.). Two hundred μl of AutoKit Glucose buffer solution diluted 1:4 in water may be added to each well.

[2] = test system: isolated rat liver mitochondria; experiment: Uncoupling activity: increase in basal (state 4) oxygen consumption by oxygraphy; format: biochemical
[3] = test system: isolated rat liver mitochondria; experiment: Residual functional capacity / inhibitory effect on ADP-stimulated (state 3) oxygen consumption; format: biochemical; conditions: for inhibition of ADP-stimulated oxygen consumption: screening at 100 μM
[4] = test system: differentiated C2C12 skeletal muscle cells; experiment: 3H-deoxyglucose uptake in C2C12 myotubes; format: cell-based, murine; conditions: 100 μM, 18 h
Protocol: 2.3 ^3H-deoxyglucose uptake in C2C12 myotubes: Cell culture and the ^3H-deoxyglucose uptake assay were performed as previously described [34B, 35B, 37B]. Briefly, C2C12 murine skeletal myoblasts (American Type Culture Collection; Manassas, Va.) were cultured under standard conditions in 12-well plates. Cells were proliferated to 80% confluence in high-glucose Dulbecco's modified Eagle's medium (DMEM; Wisent; St-Bruno, QC) supplemented with 10% fetal bovine serum (FBS; Wisent), 10% horse serum (HS), and antibiotics. Differentiation into multinucleated myotubes was then promoted with DMEM supplemented with 2% HS and antibiotics. All uptake assays were performed on 7-day differentiated cells, and treatments were timed accordingly. […] DMSO concentration was fixed at 0.1% for all conditions. Cells were routinely inspected for abnormal morphology by phase-contrast microscopy at the conclusion of the treatment period. […] Cells were then washed twice in glucose-free KPB at 37° C. before incubation for exactly 10 min at 37° C. in glucose-free KPB containing 0.5 μCi/ml 2-deoxy-D-[1-^3H]glucose (Amersham Biosciences; Buckinghamshire, UK). Cells were then placed on ice and immediately washed three times with ice-cold KPB. Cells were inspected for monolayer detachment and lysed in 0.1 N NaOH with scraping. […] Three independent experiments of 18 h treatment duration were performed for each of the selected test compounds, with three replicates per condition per experiment. Vehicle-control and 50 μM 2,4-dinitrophenol conditions were included on every plate. Some compounds were also tested at 50 μM under the following conditions: a 15 h treatment with vehicle only followed by a 3 h treatment with the test compound; a 15 h treatment with the test compound followed by a 3 h repeat treatment.
Protocol for ^3H-deoxyglucose uptake assay in C2C12 or other skeletal muscle cells; C2C12 murine skeletal myoblasts (American Type Culture Collection; Manassas, Va.) may be cultured under standard conditions in 12-well plates. Cells may be proliferated to 80% confluence in high-glucose Dulbecco's modified Eagle's medium (DMEM) supplemented with 10% fetal bovine serum (FBS), 10% horse serum (HS), and antibiotics. Differentiation into multinucleated myotubes may be then promoted with DMEM supplemented with 2% HS and antibiotics. All uptake assays may be performed on 7-day differentiated cells, and treatment onset may be timed accordingly. Cells may be treated with reference substances (such as metformin (100 or 400 μM), phenformin (100 μM), or 2,4-dinitrophenol 10-100 μM), compounds described herein, or vehicle (DMSO) in complete differentiation medium. DMSO concentration may be fixed at 0.1% for all conditions. Cells may be routinely inspected for abnormal morphology by phase-contrast microscopy at the conclusion of the treatment period. […] Cells may be then washed twice in glucose-free KPB at 37° C. before incubation for exactly 10 min at 37° C. in glucose-free KPB containing 0.5 μCi/ml 2-deoxy-D-[1-3H]glucose (Amersham Biosciences; Buckinghamshire, UK). Cells may be then placed on ice and immediately washed three times with ice-cold KPB. Cells may be inspected for monolayer detachment and lysed in 0.1 N NaOH with scraping. […] Three or more independent experiments of 18 hours treatment duration may be performed for each test compound, with three or more replicates per condition per experiment. Vehicle-control and 2,4-dinitrophenol conditions may be included on every plate for the purpose of standardizing.

[5] = Suppl. Table 1, 100 μM, 2-3 mitochondrial preparations
[6] = test conc. 25 μM, increase in basal (state 4) oxygen consumption as % of average ADP-stimulated (state 3) rate in vehicle-treated mitochondria
[7] = test conc. 100 μM, increase in basal (state 4) oxygen consumption as % of average ADP-stimulated (state 3) rate in vehicle-treated mitochondria
[8] = test conc. 25 μM, functional capacity (state 3 minus state 4 rate) as % of vehicle-treated mitochondria
[9] = test conc. 100 μM, functional capacity (state 3 minus state 4 rate) as % of vehicle-treated mitochondria

Molecule: C[C@@H]1C[C@H]2[C@@H]3CCC4=CC(=O)C=C[C@]4(C)[C@@]3(F)[C@@H](O)C[C@]2(C)[C@@]1(O)C(=O)CO [dexamethasone]
- increase in G6Pase activity [1]: 56%
- increase in G6Pase activity ([1]; listed as Dexamethasone): 56±10%

Molecule: O=c1c(O)c(-c2cc(O)c(O)c(O)c2)oc2cc(O)cc(O)c12 [myricetin]
- Measured Uncoupling Activity (% uncoupling ± SEM @ 100 μM) [2, 5]: 11 ± 0 % uncoupling
- Uncoupling (%) [2, 6]: 6 ± 3%
- Uncoupling (%) [2, 7]: 11 ± 0%
- Inhibitory effect (%) ([3]; test conc. 25 μM): 28%
- Residual capacity (%) [3, 8]: 66 ± 2%
- Inhibitory effect (%) ([3]; test conc. 100 μM): 43%
- Residual capacity (%) [3, 9]: 46 ± 3%

Molecule: [H]/N=C(/N)N/C(=N/[H])NCCc1ccccc1 [phenformin]
- increase in basal glucose uptake [4]: 48%

Molecule: Oc1ccccc1 [phenol]
- Measured Uncoupling Activity (% uncoupling ± SEM @ 100 μM) [2]: 0 ± 0 % uncoupling
- Uncoupling (%) [2]: 0 ± 0%
- Inhibitory effect (%) [3]: 4%
- Residual capacity (%) [3]: 96 ± 4%

Molecule: O=C(CCc1ccc(O)cc1)c1c(O)cc(O)cc1O [phloretin]
- Measured Uncoupling Activity (% uncoupling ± SEM @ 100 μM) [2, 5]: 15 ± 3 % uncoupling
- Uncoupling (%) [2, 6]: 3 ± 1%
- Uncoupling (%) [2, 7]: 15 ± 3%
- Inhibitory effect (%) ([3]; test conc. 25 μM): 0%
- Residual capacity (%) [3, 8]: 99 ± 12%
- Inhibitory effect (%) ([3]; test conc. 100 μM): 44%
- Residual capacity (%) [3, 9]: 41 ± 17%

Molecule: Oc1cc(O)cc(/C=C/c2ccc(O)c(O)c2)c1 [piceatannol (trans)]
- Uncoupling (%) [2, 6]: 1 ± 1%
- Uncoupling (%) [2, 7]: 5 ± 1%
- Inhibitory effect (%) ([3]; test conc. 25 μM): 64%
- Residual capacity (%) [3, 8]: 35 ± 7%
- Inhibitory effect (%) ([3]; test conc. 100 μM): 89%
- Residual capacity (%) [3, 9]: 6 ± 3%

Molecule: Oc1cccc(O)c1O [pyrogallol]
- Measured Uncoupling Activity (% uncoupling ± SEM @ 100 μM) [2, 5]: 1 ± 1 % uncoupling
- Uncoupling (%) [2, 7]: 1 ± 1%
- Inhibitory effect (%) ([3]; test conc. 100 μM): 16%
- Residual capacity (%) [3, 9]: 83 ± 17%

Molecule: O=c1c(O)c(-c2ccc(O)c(O)c2)oc2cc(O)cc(O)c12 [quercetin]
- Measured Uncoupling Activity (% uncoupling ± SEM @ 100 μM) [2, 5]: 8 ± 1 % uncoupling
- Uncoupling (%) [2, 6]: 4 ± 0%
- Uncoupling (%) [2, 7]: 8 ± 1%
- inhibition of ADP-stimulated oxygen consumption [3]: inhibitory activity
- Inhibitory effect (%) ([3]; test conc. 25 μM): 36%
- Residual capacity (%) [3, 8]: 60 ± 10%
- Inhibitory effect (%) ([3]; test conc. 100 μM): 80%
- Residual capacity (%) [3, 9]: 12 ± 5%

Molecule: Oc1cccc(O)c1 [resorcinol]
- Measured Uncoupling Activity (% uncoupling ± SEM @ 100 μM) [2, 5]: 0 ± 0 % uncoupling
- Uncoupling (%) [2, 7]: 0 ± 0%
- Inhibitory effect (%) ([3]; test conc. 100 μM): 9%
- Residual capacity (%) [3, 9]: 91 ± 3%

Molecule: Oc1ccc(C=Cc2cc(O)cc(O)c2)cc1 [resveratrol (trans)]
- Uncoupling (%) [2, 6]: 0 ± 0%
- Uncoupling (%) [2, 7]: 2 ± 0%
- Inhibitory effect (%) ([3]; test conc. 25 μM): 29%
- Residual capacity (%) [3, 8]: 71 ± 9%
- Inhibitory effect (%) ([3]; test conc. 100 μM): 62%
- Residual capacity (%) [3, 9]: 36 ± 4%

Molecule: O=C(O)c1ccccc1O [salicylic acid]
- Measured Uncoupling Activity (% uncoupling ± SEM @ 100 μM) [2, 5]: 4 ± 0 % uncoupling
- Uncoupling (%) [2, 7]: 4 ± 0%
- Inhibitory effect (%) ([3]; test conc. 100 μM): 6%
- Residual capacity (%) [3, 9]: 90 ± 2%

Molecule: COc1ccc(-c2cc(=O)c3c(O)cc(O)c(-c4cc(-c5cc(=O)c6c(O)cc(OC)cc6o5)ccc4OC)c3o2)cc1 [sciadopitysin]
- Measured Uncoupling Activity (% uncoupling ± SEM @ 100 μM) [2, 5]: −1 ± 0 % uncoupling
- Uncoupling (%) [2, 7]: −1 ± 0%
- Inhibitory effect (%) ([3]; test conc. 100 μM): 2%
- Residual capacity (%) [3, 9]: 98 ± 0%

Molecule: COc1cc(C2Oc3cc([C@H]4Oc5cc(O)cc(O)c5C(=O)[C@@H]4O)ccc3OC2CO)ccc1O (stereo partly drawn) [silibinin (A and B), silibinin]
- Measured Uncoupling Activity (% uncoupling ± SEM @ 100 μM) [2, 5]: 5 ± 1 % uncoupling
- Uncoupling (%) [2, 7]: 5 ± 1%
- inhibition of ADP-stimulated oxygen consumption [3]: inhibitory activity
- Inhibitory effect (%) ([3]; test conc. 100 μM): 73%
- Residual capacity (%) [3, 9]: 22 ± 5%

Molecule: C(=Cc1ccccc1)c1ccccc1 [stilbene (trans)]
- Uncoupling (%) [2, 7]: −1 ± 1%
- Inhibitory effect (%) ([3]; test conc. 100 μM): 1%
- Residual capacity (%) [3, 9]: 99 ± 3%

Molecule: Cc1ccc(C(C)C)c(O)c1 [thymol]
- Measured Uncoupling Activity (% uncoupling ± SEM @ 100 μM) [2, 5]: 6 ± 0 % uncoupling
- Uncoupling (%) [2, 7]: 6 ± 0%
- Inhibitory effect (%) ([3]; test conc. 100 μM): 29%
- Residual capacity (%) [3, 9]: 65 ± 5%

Molecule: Oc1cc(O)cc(/C=C/c2ccccc2)c1 [trans-pinosylvin, pinosylvin]
- Measured Uncoupling Activity (% uncoupling ± SEM @ 100 μM) [2, 5]: 3 ± 3 % uncoupling
- Uncoupling (%) [2, 6]: 0 ± 1%
- Uncoupling (%) [2, 7]: 3 ± 3%
- Inhibitory effect (%) ([3]; test conc. 25 μM): 20%
- Residual capacity (%) [3, 8]: 80 ± 13%
- Inhibitory effect (%) ([3]; test conc. 100 μM): 34%
- Residual capacity (%) [3, 9]: 63 ± 4%

Molecule: COc1cc(C=O)ccc1O [vanillin]
- Measured Uncoupling Activity (% uncoupling ± SEM @ 100 μM) [2, 5]: 0 ± 1 % uncoupling
- Uncoupling (%) [2, 7]: 0 ± 1%
- Inhibitory effect (%) ([3]; test conc. 100 μM): 26%
- Residual capacity (%) [3, 9]: 74 ± 16%

Molecule: epigallocatechin gallate [(−) epigallocatechin gallate]
- Measured Uncoupling Activity (% uncoupling ± SEM @ 100 μM) [2, 5]: 0 ± 1 % uncoupling
- Uncoupling (%) [2, 7]: 0 ± 1%
- Inhibitory effect (%) ([3]; test conc. 100 μM): 2%
- Residual capacity (%) [3, 9]: 98 ± 2%
